One experiment deals with CDK8/Cyclin C (Homo sapiens, UniProt P49336). The experiment is described as follows: Inhibition of recombinant human full-length GST/His-fused CDK8/CycC expressed in Sf9 insect cells using RBER-IRStide as substrate after 1 hr in presence of [gamma33P-ATP] by microbeta scintillation counting method.
The next experiment concerns HCT-116. The experiment is described as follows: Growth inhibition of CDK8 over-expressing human HCT116 cells by MTT assay. The format is functional. On the technique in general: Formazan colour is commonly taken as a measure of viable cells.
In another experiment the test system is COLO 205. The experiment is described as follows: Growth inhibition of CDK8 over-expressing human COLO205 cells by MTT assay. Type of experiment: functional.
The subject of a further experiment is HT-29. The experiment is described as follows: Growth inhibition of CDK8 over-expressing human HT-29 cells by MTT assay. The format is functional.
Experiment [1] deals with Cyclin-dependent kinase 8 (Homo sapiens, UniProt P49336). Kind of experiment: Binding affinity to wild-type partial length human CDK8 (M1 to T360 residues) expressed in bacterial expression system by Kinomescan assay.
For experiment [2], the target named is T1, Cyclin-dependent kinase 19 (Homo sapiens, UniProt Q9BWU1). Kind of experiment: Binding affinity to wild-type partial length human CDK11 (M1 to N360 residues) expressed in bacterial expression system by Kinomescan assay.
Experiment [3] has as its target Rho-associated protein kinase 1 (Homo sapiens, UniProt Q13464). The experiment is described as follows: Binding affinity to wild-type partial length human ROCK1 (M1 to R415 residues) expressed in mammalian expression system by Kinomescan assay.
The target in experiment [4] is Rho-associated protein kinase 2 (Homo sapiens, UniProt O75116). Kind of experiment: Binding affinity to wild-type partial length human ROCK2 (M1 to T431 residues) expressed in mammalian expression system by Kinomescan assay.
The target in experiment [5] is cAMP-dependent protein kinase catalytic subunit alpha (Homo sapiens, UniProt P17612). The experiment is described as follows: Binding affinity to wild-type partial length human PKACalpha (G10 to F351 residues) expressed in bacterial expression system by Kinomescan assay.
Another experiment has as its system HUVEC. The experiment is described as follows: Antiproliferative activity against VEGF-stimulated HUVEC. Type of experiment: functional, cell-based. The settings on record: Homo sapiens.
The subject of the next experiment is NHDF. The experiment is described as follows: Cytotoxicity against NHDF cells. The format is cell-based. To be noted: Homo sapiens.
The nature of experiment [6]: Selectivity index, ratio of IC50 for NHDF cells to IC50 for VEGF-stimulated HUVEC. Set-up: species or system Homo sapiens.
Experiment [7] addresses T1, Cyclin-dependent kinase 19. The experiment is described as follows: Inhibition of wild-type partial length human CDK11 (M1 to N360 residues) expressed in bacterial expression system at 300 nM by Kinomescan assay.
The target in experiment [8] is T2, Serine/threonine-protein kinase haspin (Homo sapiens) (UniProt Q8TF76).
T2 sequence (whole entry): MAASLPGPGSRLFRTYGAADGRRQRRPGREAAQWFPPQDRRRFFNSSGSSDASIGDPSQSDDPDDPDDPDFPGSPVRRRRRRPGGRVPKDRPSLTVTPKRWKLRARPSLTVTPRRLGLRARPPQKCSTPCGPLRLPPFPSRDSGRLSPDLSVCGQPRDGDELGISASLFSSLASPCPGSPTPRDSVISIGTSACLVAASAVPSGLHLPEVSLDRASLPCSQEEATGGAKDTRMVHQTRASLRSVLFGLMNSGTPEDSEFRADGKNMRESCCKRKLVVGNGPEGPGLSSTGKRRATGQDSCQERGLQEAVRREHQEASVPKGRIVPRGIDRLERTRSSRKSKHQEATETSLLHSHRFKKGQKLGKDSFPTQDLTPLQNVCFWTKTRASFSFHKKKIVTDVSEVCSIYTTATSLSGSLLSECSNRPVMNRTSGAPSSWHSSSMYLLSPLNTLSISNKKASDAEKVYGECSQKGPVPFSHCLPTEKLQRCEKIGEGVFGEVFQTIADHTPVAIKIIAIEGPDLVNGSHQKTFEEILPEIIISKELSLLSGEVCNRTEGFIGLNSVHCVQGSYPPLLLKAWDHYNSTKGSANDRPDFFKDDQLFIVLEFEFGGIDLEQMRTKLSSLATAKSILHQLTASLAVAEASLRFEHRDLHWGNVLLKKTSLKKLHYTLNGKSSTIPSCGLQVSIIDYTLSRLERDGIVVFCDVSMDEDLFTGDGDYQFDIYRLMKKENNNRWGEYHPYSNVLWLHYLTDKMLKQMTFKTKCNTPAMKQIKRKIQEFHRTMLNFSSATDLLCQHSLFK
The experiment is described as follows: Inhibition of wild-type human partial length HASPIN (I452 to K798 residues) expressed in mammalian expression system at 300 nM by Kinomescan method relative to control.

Experiment [9] concerns the target Cyclin-C/Cyclin-dependent kinase 19 (Homo sapiens, UniProt Q9BWU1). Kind of experiment: Inhibition of recombinant human GST/His-tagged CDK11 (1 to 502 residues)/cyclinC (1 to 283 residues) catalytic domain expressed in insect cells by Lantha screen eu binding assay.

Where only a bound is given, the exact number is not on record here.

CDK8/Cyclin C, sequence (P49336 whole entry, the tested form may be a part): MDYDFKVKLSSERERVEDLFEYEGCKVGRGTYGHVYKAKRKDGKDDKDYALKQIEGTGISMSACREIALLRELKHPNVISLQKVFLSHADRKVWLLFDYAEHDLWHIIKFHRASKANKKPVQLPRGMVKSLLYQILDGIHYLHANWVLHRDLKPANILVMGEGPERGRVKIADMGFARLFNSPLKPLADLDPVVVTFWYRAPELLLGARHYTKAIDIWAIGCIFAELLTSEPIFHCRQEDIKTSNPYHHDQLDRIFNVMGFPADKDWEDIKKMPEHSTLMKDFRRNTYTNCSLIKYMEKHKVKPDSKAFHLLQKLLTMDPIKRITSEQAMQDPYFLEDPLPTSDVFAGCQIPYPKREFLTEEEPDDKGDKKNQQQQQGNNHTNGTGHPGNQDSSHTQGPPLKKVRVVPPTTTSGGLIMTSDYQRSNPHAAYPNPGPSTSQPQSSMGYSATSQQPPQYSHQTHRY
CDK8/Cyclin C, sequence (P24863 whole entry, further chain, the tested form may be a part): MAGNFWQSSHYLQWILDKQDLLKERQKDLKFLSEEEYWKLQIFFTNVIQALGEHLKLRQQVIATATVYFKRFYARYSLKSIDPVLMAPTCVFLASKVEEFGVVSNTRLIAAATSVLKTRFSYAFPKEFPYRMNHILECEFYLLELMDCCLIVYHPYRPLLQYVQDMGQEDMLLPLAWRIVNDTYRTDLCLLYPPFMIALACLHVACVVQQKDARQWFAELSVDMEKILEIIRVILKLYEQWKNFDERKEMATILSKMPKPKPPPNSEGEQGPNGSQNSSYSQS
T1 sequence (Q9BWU1 whole entry, the tested form may be a part): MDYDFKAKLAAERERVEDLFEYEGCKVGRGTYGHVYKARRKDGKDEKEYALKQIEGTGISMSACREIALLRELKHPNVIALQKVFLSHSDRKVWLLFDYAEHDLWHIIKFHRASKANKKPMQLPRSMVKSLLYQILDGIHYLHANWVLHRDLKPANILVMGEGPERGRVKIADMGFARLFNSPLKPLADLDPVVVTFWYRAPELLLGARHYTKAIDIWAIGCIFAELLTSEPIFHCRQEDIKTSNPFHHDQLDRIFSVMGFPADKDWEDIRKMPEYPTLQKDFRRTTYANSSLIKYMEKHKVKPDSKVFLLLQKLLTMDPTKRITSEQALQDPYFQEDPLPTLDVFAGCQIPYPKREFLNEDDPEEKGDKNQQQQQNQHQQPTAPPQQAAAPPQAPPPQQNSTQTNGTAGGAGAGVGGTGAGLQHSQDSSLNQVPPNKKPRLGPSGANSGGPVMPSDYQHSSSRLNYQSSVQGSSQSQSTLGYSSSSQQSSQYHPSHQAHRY
Cyclin-dependent kinase 8, sequence (P49336 whole entry, the tested form may be a part): as the sequence (P49336 whole entry, the tested form may be a part) above
Rho-associated protein kinase 2, sequence (O75116 whole entry, the tested form may be a part): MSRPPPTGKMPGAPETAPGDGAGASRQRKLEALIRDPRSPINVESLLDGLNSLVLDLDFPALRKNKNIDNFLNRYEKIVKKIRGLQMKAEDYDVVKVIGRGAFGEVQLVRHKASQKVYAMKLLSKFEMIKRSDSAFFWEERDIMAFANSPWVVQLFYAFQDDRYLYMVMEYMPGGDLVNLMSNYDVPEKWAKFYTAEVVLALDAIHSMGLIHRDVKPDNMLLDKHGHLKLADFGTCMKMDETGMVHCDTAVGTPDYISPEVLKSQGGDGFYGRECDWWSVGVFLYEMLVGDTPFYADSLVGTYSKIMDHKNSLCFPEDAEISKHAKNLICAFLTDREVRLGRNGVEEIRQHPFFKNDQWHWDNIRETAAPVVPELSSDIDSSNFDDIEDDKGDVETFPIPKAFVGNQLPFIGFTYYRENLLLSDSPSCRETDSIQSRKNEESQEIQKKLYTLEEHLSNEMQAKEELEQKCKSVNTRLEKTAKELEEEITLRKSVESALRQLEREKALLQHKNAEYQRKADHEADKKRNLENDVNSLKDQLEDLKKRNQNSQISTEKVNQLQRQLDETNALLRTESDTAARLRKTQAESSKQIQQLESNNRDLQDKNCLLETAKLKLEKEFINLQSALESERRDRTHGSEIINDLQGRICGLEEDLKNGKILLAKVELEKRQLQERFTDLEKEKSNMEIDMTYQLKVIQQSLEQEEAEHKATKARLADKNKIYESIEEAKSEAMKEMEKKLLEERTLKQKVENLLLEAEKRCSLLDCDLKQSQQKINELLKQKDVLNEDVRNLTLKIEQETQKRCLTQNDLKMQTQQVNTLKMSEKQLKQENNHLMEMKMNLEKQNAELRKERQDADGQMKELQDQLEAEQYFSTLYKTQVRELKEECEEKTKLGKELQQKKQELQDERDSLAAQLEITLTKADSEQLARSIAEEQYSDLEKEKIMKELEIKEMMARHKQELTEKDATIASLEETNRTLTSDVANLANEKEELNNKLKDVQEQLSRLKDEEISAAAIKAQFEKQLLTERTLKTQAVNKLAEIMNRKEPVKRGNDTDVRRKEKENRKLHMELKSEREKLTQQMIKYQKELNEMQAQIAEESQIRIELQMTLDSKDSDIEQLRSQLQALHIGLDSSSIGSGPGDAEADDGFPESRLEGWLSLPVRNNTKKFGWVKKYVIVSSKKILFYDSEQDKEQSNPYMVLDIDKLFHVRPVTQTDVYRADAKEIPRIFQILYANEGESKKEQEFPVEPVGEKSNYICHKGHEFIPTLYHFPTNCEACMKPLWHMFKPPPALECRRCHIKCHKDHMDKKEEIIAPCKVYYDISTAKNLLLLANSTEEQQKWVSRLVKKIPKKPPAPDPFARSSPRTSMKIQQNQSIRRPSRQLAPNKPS
Rho-associated protein kinase 1, sequence (Q13464 whole entry, the tested form may be a part): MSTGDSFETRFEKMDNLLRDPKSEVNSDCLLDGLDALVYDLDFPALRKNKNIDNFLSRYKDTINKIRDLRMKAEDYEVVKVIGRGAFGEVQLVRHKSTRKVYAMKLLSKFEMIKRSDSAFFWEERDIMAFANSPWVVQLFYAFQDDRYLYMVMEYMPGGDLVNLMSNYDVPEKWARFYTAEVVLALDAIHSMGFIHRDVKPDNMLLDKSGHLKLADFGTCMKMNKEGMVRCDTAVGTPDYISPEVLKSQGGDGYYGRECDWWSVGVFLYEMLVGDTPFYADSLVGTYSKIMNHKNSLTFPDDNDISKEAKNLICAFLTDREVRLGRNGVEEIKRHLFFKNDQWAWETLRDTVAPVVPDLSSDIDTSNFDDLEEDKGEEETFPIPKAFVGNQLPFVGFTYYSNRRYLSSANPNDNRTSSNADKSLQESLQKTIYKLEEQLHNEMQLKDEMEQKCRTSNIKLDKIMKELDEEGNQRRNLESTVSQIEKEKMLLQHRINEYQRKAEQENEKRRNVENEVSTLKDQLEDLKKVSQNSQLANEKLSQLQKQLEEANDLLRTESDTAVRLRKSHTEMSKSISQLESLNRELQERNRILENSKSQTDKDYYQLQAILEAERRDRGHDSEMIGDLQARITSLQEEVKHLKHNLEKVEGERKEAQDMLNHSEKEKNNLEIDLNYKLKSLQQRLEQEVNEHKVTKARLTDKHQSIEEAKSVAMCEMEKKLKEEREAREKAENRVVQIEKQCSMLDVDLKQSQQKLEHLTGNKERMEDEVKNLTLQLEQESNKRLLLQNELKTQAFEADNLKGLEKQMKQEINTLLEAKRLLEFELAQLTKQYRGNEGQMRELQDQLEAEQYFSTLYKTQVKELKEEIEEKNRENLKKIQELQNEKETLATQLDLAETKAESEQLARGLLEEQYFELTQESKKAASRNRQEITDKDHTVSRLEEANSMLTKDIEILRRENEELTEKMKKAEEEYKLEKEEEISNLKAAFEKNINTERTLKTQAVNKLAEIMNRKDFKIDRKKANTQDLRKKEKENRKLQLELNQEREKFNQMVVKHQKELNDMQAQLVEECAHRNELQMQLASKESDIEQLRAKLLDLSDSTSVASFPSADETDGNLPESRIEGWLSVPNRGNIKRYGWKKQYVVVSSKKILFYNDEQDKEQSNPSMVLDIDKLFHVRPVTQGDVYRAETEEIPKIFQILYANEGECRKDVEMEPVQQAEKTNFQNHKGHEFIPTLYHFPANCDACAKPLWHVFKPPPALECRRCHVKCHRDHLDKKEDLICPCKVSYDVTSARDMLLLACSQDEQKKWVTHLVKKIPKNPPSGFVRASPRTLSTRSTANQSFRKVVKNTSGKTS
Cyclin-C/Cyclin-dependent kinase 19, sequence (Q9BWU1 whole entry, the tested form may be a part): as the sequence (Q9BWU1 whole entry, the tested form may be a part) above
Cyclin-C/Cyclin-dependent kinase 19, sequence (P24863 whole entry, further chain, the tested form may be a part): as the sequence (P24863 whole entry, further chain, the tested form may be a part) above

In general, IC50 refers to the concentration that inhibits the measured activity by half. In general, GI50 refers to the concentration at which growth is held to half of that of the control. As to `Cc1ccc(NC(=O)Nc2ccc(Cc3ccncc3)cc2)cc1C`, on CDK8/Cyclin C, the IC50 was 0.018 µM. In addition, the GI50 in the experiment on HCT-116, with COLO 205 and in the experiment with HT-29 was 6.43 to 11.3 µM throughout.
Consider `Cc1ccc(NC(=O)Nc2nnc(-c3cccc(F)c3)s2)cc1C`, for which the IC50 on CDK8/Cyclin C stood at 0.047 µM. In addition, the 50% growth inhibitory concentration (GI50) in the experiment with HCT-116, in the experiment with COLO 205 and in the experiment with HT-29 was 6.43 to 11.3 µM throughout.
One may read the Kd as a measure of binding affinity in units of concentration. As for `N#Cc1ccc2ncnc(NCCc3ccccc3)c2c1`, the figures for the dissociation constant (Kd) in [1] and in [2] were 0.83 µM and 0.31 µM, respectively.
Turning to `CN(C)[C@H]1C[C@@]23CC[C@@]4(O2)C(=CC[C@]2(C)[C@@H](c5ccc6ccncc6c5)CC[C@H]24)C=C3[C@@H](O)[C@@H]1O`, the Kd was 0.017 µM in experiment [1]; 0.01 µM in [2]; 0.25 µM in experiment [3]; 0.22 µM in experiment [4]; 3.5 µM in [5]. Further, the IC50 in the experiment on HUVEC turned out to be 0.0018 µM; in the experiment with NHDF, 6 µM. For the same compound, the “Ratio IC50” value in [6] is recorded as 3300.
What is called inhibition is the share of the control response that was lost under treatment. The low end stands for a weak effect, the high end for a strong effect. Consider `Cc1ncccc1Oc1sc(C(N)=O)c2c1-c1c(cnn1C)CC2`, for which the inhibition in experiment [7] and in experiment [8] was 99% in each case.
`CC1CCc2nc(N)c(C#N)c(-c3cccnc3)c2C1` (stereo unspecified): in experiment [9], the IC50 is more than 30 µM.
`Fc1ccc2nccc(Nc3ccccc3F)c2c1`: the IC50 on CDK8/Cyclin C was 0.386 µM. Moreover, the concentration for 50% growth inhibition (GI50) with HCT-116, in the experiment with COLO 205 and in the experiment on HT-29 was 6.43 to 11.3 µM each time.
`O=C(/C=C/c1cnccc1-c1ccc(F)cc1)Nc1ccc(CCc2nnco2)cc1` registered an inhibition in experiment [7] of 94%.

(Values after ChEMBL document CHEMBL4411304, “CDK8 as a therapeutic target for cancers and recent developments in discovery of CDK8 inhibitors” (Eur J Med Chem, 2019).)
